Results taken from paper PMC7083565, “In vitro metabolism, reaction phenotyping, enzyme kinetics, CYP inhibition and induction potential of ataluren” (Pharmacology Research & Perspectives, 2020).

Key:
Assay type in all cases: in vitro ADME
[1] = target: T1, CYP2B6 (Homo sapiens, UniProt P20813); test: CYP inhibition in pooled human liver microsomes: CYP2B6; settings: CYP2B6, HLM, estimated, concentrations up to 400 μmol/L
T1 construct: tissue XenoTech LLC, Celsis-In Vitro Technologies, or Tissue Transformation Technologies; host or cells: pooled human liver microsomes
T1 sequence (P20813 1-491): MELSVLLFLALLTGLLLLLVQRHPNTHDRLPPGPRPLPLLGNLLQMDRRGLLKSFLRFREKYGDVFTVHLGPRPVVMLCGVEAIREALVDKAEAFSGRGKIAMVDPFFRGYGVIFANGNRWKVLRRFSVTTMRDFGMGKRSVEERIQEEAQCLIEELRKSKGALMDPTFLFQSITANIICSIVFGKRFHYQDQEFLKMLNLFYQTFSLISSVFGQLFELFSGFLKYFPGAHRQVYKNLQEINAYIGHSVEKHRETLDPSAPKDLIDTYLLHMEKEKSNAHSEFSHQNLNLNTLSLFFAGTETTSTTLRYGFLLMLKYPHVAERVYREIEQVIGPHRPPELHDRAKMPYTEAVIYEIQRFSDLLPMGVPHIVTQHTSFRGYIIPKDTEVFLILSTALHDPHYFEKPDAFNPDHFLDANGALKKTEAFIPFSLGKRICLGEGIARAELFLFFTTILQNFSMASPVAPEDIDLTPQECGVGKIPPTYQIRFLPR
Protocol: (§1) The final concentration of each probe substrate was near the experimentally determined Km value for the indicated enzyme. Ataluren or prototypical CYP inhibitors (positive controls) was incubated (n = 3) with probe substrates and HLM in 100 mmol/L phosphate buffer (pH 7.4) in a total volume of approximately 0.25 mL, and the reactions were initiated by the addition of 1 mmol/L NADPH at 37°C. The reactions were carried out using previously established conditions to ensure linearity with respect to protein concentration and incubation time (Table S1). Incubations were stopped with the addition of ice‐cold acetonitrile. Metabolite formation in incubations with test compound and control inhibitors was assessed with LC‐MS/MS methods for each of the reaction products as described in Table S2. […] After 7 minutes incubation at 37°C, the reaction was stopped by the addition of ice‐cold acetonitrile, followed by membrane plate filtration. The filtrates were used for LC‐MS/MS analysis. […] IC50 values were determined by nonlinear regression with GraphPad Prism 5 using the following four‐parameter sigmoidal‐logistic IC50 equation: Fit=background+range-background/[1+I/IC50^slope]
(§2) Where, I is the inhibitor concentration, and background was set to 0 and range to 100, as percent of control values are utilized. K i was determined by nonlinear regression with GraphPad Prism 5 using best fit model.

[2] = Plasma protein binding (ultrafiltration), human
Protocol: (§3) [^14C]‐Ataluren, at 50, 500, 5000, and 50 000 ng/mL or 0.175, 1.75, 17.5, and 175 µM, in male mouse, rat, dog, monkey, and human plasma, was incubated (n = 3) at 37°C for approximately 15 minutes, transferred into Centrifree® Micropartition Units (30 000 Da molecular weight cutoff, 1 mL capacity; Amicon Inc), and centrifuged at 37°C and 2000 g for approximately 10 minutes so that the amount of the sample filtered was approximately ≤ 20% of the total volume. After centrifugation, the entire ultrafiltrate was weighed and analyzed for radioactivity using liquid scintillation counting. The percent bound = (1‐Cu/Cm)×100, where Cu is the concentration of radioactivity in the ultrafiltrate and Cm is the concentration of radioactivity in the plasma before centrifugation.

[3] = Plasma protein binding (ultrafiltration), monkey; settings: male, cynomolgus, 50 to 50 000 ng/mL, mean ± SD, n = 3, read-out: percentage protein binding (converted)
Protocol: as §3

[4] = target: T2, CYP2C8 (Homo sapiens, UniProt P10632); test: CYP inhibition in pooled human liver microsomes: CYP2C8
T2 construct: tissue XenoTech LLC, Celsis-In Vitro Technologies, or Tissue Transformation Technologies; host or cells: pooled human liver microsomes
T2 sequence (P10632 1-490): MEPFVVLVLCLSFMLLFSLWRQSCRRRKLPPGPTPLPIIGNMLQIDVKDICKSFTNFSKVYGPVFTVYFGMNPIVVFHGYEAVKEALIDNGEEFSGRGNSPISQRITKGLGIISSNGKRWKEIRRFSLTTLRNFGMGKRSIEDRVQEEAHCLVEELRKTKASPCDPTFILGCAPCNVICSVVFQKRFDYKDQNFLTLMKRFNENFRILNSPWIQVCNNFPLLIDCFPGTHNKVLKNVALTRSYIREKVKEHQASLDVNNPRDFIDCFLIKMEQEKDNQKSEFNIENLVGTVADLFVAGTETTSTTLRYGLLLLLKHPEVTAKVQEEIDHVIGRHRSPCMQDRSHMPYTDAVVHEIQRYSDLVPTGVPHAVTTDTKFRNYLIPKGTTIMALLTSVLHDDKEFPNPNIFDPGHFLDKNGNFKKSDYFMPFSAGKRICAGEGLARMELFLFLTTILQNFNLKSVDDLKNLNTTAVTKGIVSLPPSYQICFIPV
Protocol: The final concentration of each probe substrate was near the experimentally determined Km value for the indicated enzyme. Ataluren or prototypical CYP inhibitors (positive controls) was incubated (n = 3) with probe substrates and HLM in 100 mmol/L phosphate buffer (pH 7.4) in a total volume of approximately 0.25 mL, and the reactions were initiated by the addition of 1 mmol/L NADPH at 37°C. The reactions were carried out using previously established conditions to ensure linearity with respect to protein concentration and incubation time (Table S1). Incubations were stopped with the addition of ice‐cold acetonitrile. Metabolite formation in incubations with test compound and control inhibitors was assessed with LC‐MS/MS methods for each of the reaction products as described in Table S2. […] After 7 minutes incubation at 37°C, the reaction was stopped by the addition of ice‐cold acetonitrile, followed by membrane plate filtration. The filtrates were used for LC‐MS/MS analysis. Enzyme activity remaining at each nonzero ataluren concentration after incubation was normalized against control sample (zero ataluren concentration, enzyme activity = 100%), and the % remaining enzyme activity values were used for IC50 calculation. IC50 values were determined by nonlinear regression with GraphPad Prism 5 using the following four‐parameter sigmoidal‐logistic IC50 equation: Fit=background+range-background/[1+I/IC50^slope]
as §2

[5] = target: T3, CYP2D6 (Homo sapiens, UniProt P10635); test: CYP inhibition in pooled human liver microsomes: CYP2D6; settings: CYP2D6, HLM, estimated, concentrations up to 400 μmol/L
T3 construct: tissue XenoTech LLC, Celsis-In Vitro Technologies, or Tissue Transformation Technologies; host or cells: pooled human liver microsomes
T3 sequence (P10635 whole entry): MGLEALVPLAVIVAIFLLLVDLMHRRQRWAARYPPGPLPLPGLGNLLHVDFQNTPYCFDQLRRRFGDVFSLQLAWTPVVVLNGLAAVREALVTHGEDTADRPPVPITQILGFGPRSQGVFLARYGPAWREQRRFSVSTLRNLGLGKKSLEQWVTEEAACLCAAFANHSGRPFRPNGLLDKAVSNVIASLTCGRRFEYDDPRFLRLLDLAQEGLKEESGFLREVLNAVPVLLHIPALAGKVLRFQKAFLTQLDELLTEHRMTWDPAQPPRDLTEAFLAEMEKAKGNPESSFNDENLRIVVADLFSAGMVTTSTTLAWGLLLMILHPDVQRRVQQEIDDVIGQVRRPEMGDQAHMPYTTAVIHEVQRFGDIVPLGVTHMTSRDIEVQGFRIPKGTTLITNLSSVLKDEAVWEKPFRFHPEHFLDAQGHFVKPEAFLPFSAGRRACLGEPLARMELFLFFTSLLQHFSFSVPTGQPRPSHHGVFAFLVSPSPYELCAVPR
Protocol: as §1, §2

Structure (SMILES): O=C(O)c1cccc(-c2noc(-c3ccccc3F)n2)c1 [ataluren, Ataluren]
- IC50 [1]: > 400 µM
- free fraction in human plasma ([2]; as measured): 0.4%
- fraction unbound at 15 min ([2]; male, 50 to 50 000 ng/mL, mean ± SD, n = 3, read-out: percentage protein binding (converted)): 0.004
- fraction unbound at 15 min [3]: 0.003
- IC50 ([4]; Amodiaquine N-deethylase, pooled HLM, n=3, (95% confidence interval)): 163 µM
- mechanism of inhibition ([4]; CYP2C8, amodiaquine N-deethylase): noncompetitive inhibitor
- Ki ([4]; CYP2C8, noncompetitive, mean ± SE, n = 3): 169 ± 6.19 µM
- IC50 ([4]; human, pooled human liver microsomes, pH 7.4, CYP2C8, HLM): 165 µM
- IC50 [5]: > 400 µM
